Measurements taken from DBAASP.
≈ marks a conversion by molar mass, not a printed value. Blank lines part the entries; values can stand above or below the molecule they belong to.

Legend:
Assay in all cases: ≥ marks a high value that may be exact or a test limit, other limits are often not marked, values filed in µg/mL are converted to µM
Leuconostoc lactis = tested on: Leuconostoc lactis
Bacillus subtilis 168 = tested on: Bacillus subtilis 168
[1] = tested on: Escherichia coli DH5alpha
Staphylococcus xylosus = tested on: Staphylococcus xylosus
[2] = tested on: Enterococcus faecalis NCTC 12697
[3] = tested on: Escherichia coli NCTC 10418
[4] = tested on: Staphylococcus aureus ATCC 12493
Candida albicans = tested on: Candida albicans
[5] = tested on: Pseudomonas aeruginosa ATCC 27853
[6] = tested on: Staphylococcus aureus ATCC 49476
Staphylococcus aureus MR = tested on: Staphylococcus aureus MR
[7] = tested on: Escherichia coli ATCC 25726
[8] = tested on: Staphylococcus aureus ATCC 25923
Bacillus megaterium Bm11 = tested on: Bacillus megaterium Bm11
Escherichia coli ML-35 = tested on: Escherichia coli ML-35
[9] = tested on: Salmonella enterica subsp. enterica serovar Typhimurium ATCC 14028

Compound: CC[C@H](C)[C@H](NC(=O)[C@H](CO)NC(=O)[C@H](CO)NC(=O)[C@@H](NC(=O)[C@H](CC(C)C)NC(=O)CN)C(C)C)C(=O)NCC(=O)N[C@@H](CCCCN)C(=O)N[C@@H](C)C(=O)N[C@@H](CC(C)C)C(=O)NCC(=O)NCC(=O)N[C@@H](CC(C)C)C(=O)N[C@@H](CC(C)C)C(=O)N[C@H](C(=O)N[C@@H](CC(=O)O)C(=O)N[C@H](C(=O)N[C@H](C(=O)N[C@@H](CCCCN)C(=O)N[C@@H](CO)C(=O)N[C@@H](CCCCN)C(=O)NCC(=O)N[C@@H](CCC(N)=O)C(=O)N1CCC[C@H]1C(=O)N[C@@H](C)C(=O)O)C(C)C)C(C)C)C(C)C [GLVSSIGKALGGLLVDVVKSKGQPA]
MIC (Leuconostoc lactis): 20.9 µM (≈ 50 µg/mL)

Compound: CC[C@H](C)[C@H](NC(=O)[C@H](CCCCN)NC(=O)[C@H](CC(C)C)NC(=O)[C@H](Cc1ccccc1)NC(=O)[C@H](CCCCN)NC(=O)[C@H](CCCCN)NC(=O)[C@H](Cc1ccccc1)NC(=O)[C@H](C)NC(=O)[C@H](CCCCN)NC(=O)[C@H](CCCCN)NC(=O)[C@H](Cc1ccccc1)NC(=O)[C@H](CC(C)C)NC(=O)[C@H](CCCCN)NC(=O)[C@H](Cc1c[nH]c2ccccc12)NC(=O)[C@H](CCCCN)NC(=O)CN)C(=O)N[C@@H](CC(C)C)C(=O)N[C@@H](C)C(=O)N[C@@H](CS)C(=O)O [GKWKLFKKAFKKFLKILAC]
MIC (Bacillus subtilis 168): 3.2 µM (≈ 7.35 µg/mL)

Compound: CC(C)C[C@H](NC(=O)[C@H](C)NC(=O)[C@H](Cc1c[nH]c2ccccc12)NC(=O)[C@H](CCCCN)NC(=O)[C@H](CC(C)C)NC(=O)[C@@H](N)Cc1ccccc1)C(=O)N[C@@H](CCCCN)C(=O)N[C@H](C(=O)N[C@@H](C)C(=O)N[C@@H](C)C(=O)N[C@@H](CCCCN)C(N)=O)C(C)C [FLKWALKVAAK]
MIC [2]: ≥ 512 µM
MIC [3]: ≥ 512 µM
MIC [4]: ≥ 512 µM

Compound: CC[C@H](C)[C@H](NC(=O)[C@H](C)NC(=O)[C@H](CCCCN)NC(=O)CNC(=O)[C@H](C)NC(=O)[C@H](CO)NC(=O)[C@H](Cc1ccccc1)NC(=O)[C@H](CC(C)C)NC(=O)CNC(=O)CNC(=O)[C@H](C)NC(=O)[C@H](C)NC(=O)[C@H](Cc1cnc[nH]1)NC(=O)[C@H](Cc1cnc[nH]1)NC(=O)[C@@H](NC(=O)[C@@H](N)Cc1ccccc1)[C@@H](C)CC)C(=O)N[C@@H](Cc1cnc[nH]1)C(=O)N[C@@H](CCCN=C(N)N)C(=O)N[C@@H](CC(C)C)C(=O)N[C@H](C(=O)N[C@@H](CCCN=C(N)N)C(=O)N[C@@H](CCCN=C(N)N)C(=O)N[C@@H](CCCN=C(N)N)C(=O)N[C@@H](CCCN=C(N)N)C(=O)N[C@@H](CCCN=C(N)N)C(=O)O)[C@@H](C)CC [FIHHAAGGLFSAGKAIHRLIRRRRR]
MIC (Candida albicans): 44.2 µM (≈ 128 µg/mL)
MIC [5]: 177 µM (≈ 512 µg/mL)
MIC [6]: ≥ 177 µM
MIC (Staphylococcus aureus MR): ≥ 177 µM

Compound: CC[C@H](C)[C@H](NC(=O)CN)C(=O)N[C@@H](Cc1ccccc1)C(=O)N[C@@H](CO)C(=O)N[C@@H](CCCCN)C(=O)N[C@@H](Cc1ccccc1)C(=O)NCC(=O)NCC(=O)N[C@@H](CCCCN)C(=O)N[C@@H](C)C(=O)N[C@H](C(=O)N[C@@H](CCCCN)C(=O)N[C@@H](CC(N)=O)C(=O)N[C@@H](CC(C)C)C(=O)N[C@@H](Cc1ccccc1)C(=O)N[C@H](C(=O)N[C@@H](CCCCN)C(=O)NCC(=O)N[C@@H](C)C(=O)N[C@@H](CCCCN)C(=O)N[C@@H](CC(N)=O)C(=O)N[C@H](C(=O)NCC(=O)N[C@@H](CCCCN)C(=O)N[C@@H](CCC(=O)O)C(=O)N[C@H](C(=O)NCC(=O)N[C@@H](CCSC)C(=O)N[C@@H](CC(=O)O)C(=O)N[C@H](C(=O)N[C@H](C(=O)N[C@@H](CCCN=C(N)N)C(=O)N[C@H](C(=O)NCC(=O)N[C@H](C(=O)N[C@@H](CC(=O)O)C(=O)N[C@H](C(=O)N[C@@H](C)C(=O)NCC(=O)N[C@H]1CSSC[C@@H](C(=O)O)NC(=O)[C@H](CCC(=O)O)NC(=O)CNC(=O)[C@H](CCCCN)NC(=O)[C@H]([C@@H](C)CC)NC(=O)[C@H](CCCCN)NC1=O)C(C)C)[C@@H](C)CC)[C@@H](C)O)[C@@H](C)CC)C(C)C)C(C)C)[C@@H](C)CC)[C@@H](C)CC)[C@@H](C)CC [GIFSKFGGKAIKNLFIKGAKNIGKEVGMDVIRTGIDVAGCKIKGEC]
MIC [7]: 13 µM (≈ 62.5 µg/mL)
MIC [8]: 13 µM (≈ 62.5 µg/mL)

Compound: CC[C@H](C)[C@H](NC(=O)[C@H](Cc1cnc[nH]1)NC(=O)[C@H](CCCCN)NC(=O)CNC(=O)[C@@H](NC(=O)[C@H](CO)NC(=O)[C@H](Cc1ccccc1)NC(=O)[C@H](CC(C)C)NC(=O)CNC(=O)CNC(=O)[C@@H](NC(=O)[C@@H](NC(=O)[C@H](Cc1cnc[nH]1)NC(=O)[C@H](Cc1cnc[nH]1)NC(=O)[C@@H](NC(=O)[C@@H](N)Cc1ccccc1)[C@@H](C)CC)[C@@H](C)CC)[C@@H](C)CC)C(C)C)C(=O)N[C@@H](Cc1cnc[nH]1)C(=O)N[C@@H](CCCN=C(N)N)C(=O)N[C@@H](CC(C)C)C(=O)N[C@H](C(=O)N[C@@H](CCCN=C(N)N)C(=O)N[C@@H](CCCN=C(N)N)C(=O)N[C@@H](CCCN=C(N)N)C(=O)N[C@@H](CCCN=C(N)N)C(=O)N[C@@H](CCCN=C(N)N)C(=O)O)[C@@H](C)CC [FIHHIIGGLFSVGKHIHRLIRRRRR]
MIC (Candida albicans): 41.6 µM (≈ 128 µg/mL)
MIC [5]: 41.6 µM (≈ 128 µg/mL)
MIC [6]: 5.2 µM (≈ 16 µg/mL)
MIC (Staphylococcus aureus MR): 10.4 µM (≈ 32 µg/mL)

Next, values leading:

MIC [1]: 16 µM (≈ 21.6 µg/mL)
MIC (Staphylococcus xylosus): 8 µM (≈ 10.8 µg/mL)
Compound: CC(C)C[C@H](NC(=O)[C@H](CC(C)C)NC(=O)[C@H](CC(C)C)NC(=O)[C@H](CC(C)C)NC(=O)[C@H](CC(C)C)NC(=O)[C@H](CCCCN)NC(=O)[C@H](CCCCN)NC(=O)[C@@H](N)CCCCN)C(=O)N[C@@H](CCCCN)C(=O)N[C@@H](CCCCN)C(=O)N[C@@H](CCCCN)C(=O)O [KKKLLLLLKKK]

MIC (Bacillus subtilis 168): 7 µM (≈ 12.9 µg/mL)
Compound: CC[C@H](C)[C@H](NC(=O)[C@H](CS)NC(=O)[C@H](CCSC)NC(=O)[C@H](C)NC(=O)[C@H](CCCN=C(N)N)NC(=O)[C@@H](N)CC(C)C)C(=O)N[C@@H](CCCCN)C(=O)N[C@@H](Cc1c[nH]c2ccccc12)C(=O)N[C@@H](Cc1c[nH]c2ccccc12)C(=O)N[C@@H](CO)C(=O)NCC(=O)N[C@@H](CCCCN)C(=O)N[C@@H](Cc1cnc[nH]1)C(=O)N1CCC[C@H]1C(=O)N[C@@H](CCCCN)C(=O)O [LRAMCIKWWSGKHPK]

MIC (Bacillus megaterium Bm11): 8 µM (≈ 19.1 µg/mL)
MIC (Escherichia coli ML-35): 4 µM (≈ 9.53 µg/mL)
MIC [9]: 8 µM (≈ 19.1 µg/mL)
MIC [8]: 8 µM (≈ 19.1 µg/mL)
Compound: CC(C)C[C@H](NC(=O)[C@H](CCCN=C(N)N)NC(=O)[C@H](CCCN=C(N)N)NC(=O)[C@H](Cc1ccccc1)NC(=O)[C@H](CCCN=C(N)N)NC(=O)CN)C(=O)NCC(=O)N[C@@H](CCCN=C(N)N)C(=O)N[C@@H](CCCCN)C(=O)N[C@@H](Cc1ccccc1)C(=O)N[C@@H](CCCCN)C(=O)N[C@@H](CCCCN)C(=O)N[C@@H](CC(C)C)C(=O)N[C@@H](Cc1ccccc1)C(=O)N[C@@H](CCCCN)C(=O)N[C@@H](CCCCN)C(=O)N[C@@H](Cc1ccc(O)cc1)C(=O)NCC(=O)N1CCC[C@H]1C(=O)O [GRFRRLGRKFKKLFKKYGP]
